According to the NIST ThermoML archive (doi:10.1016/j.jct.2018.06.014):
Numbers after ± are expanded uncertainties.

Tests used:
[1] = for Normal melting temperature: Crystal 1, DTA; for Glass transition temperature: DSC
[2] = Molar enthalpy of transition or fusion; settings: Crystal 1; DSC

Row | SMILES | Normal melting temperature [1] | Molar enthalpy of transition or fusion [2] | Glass transition temperature [1]
1 | CCCC[N+]1(C)CCCCC1.O=S(=O)([O-])C(F)(F)F [1-butyl-1-methylpiperidinium trifluoromethanesulfonate] | 36.00 ± 2 °C | 5.5 ± 0.478 kcal/mol | 
2 | COP(=O)([O-])OC.Cn1cc[n+](C)c1 [1,3-dimethylimidazolium dimethylphosphate] |  |  | -63.00 ± 2 °C
3 | CCCCn1cc[n+](C)c1.O=S(=O)([O-])C(F)(F)F [1-butyl-3-methylimidazolium trifluoromethanesulfonate] | 18.00 ± 2 °C | 6.21 ± 0.717 kcal/mol | 
4 | CCCC[N+]1(C)CCCCC1.O=S(=O)([N-]S(=O)(=O)C(F)(F)F)C(F)(F)F |  |  | -72.00 ± 2 °C

Now from value to compound, other results behind:

Row | Normal melting temperature [1] | Molar enthalpy of transition or fusion [2] | SMILES | Glass transition temperature [1]
5 | -5.00 ± 2 °C | 4.06 ± 0.478 kcal/mol | CC[NH+](C)CC.O=S(=O)([O-])C(F)(F)F [diethylmethylammonium trifluoromethanesulfonate] | 
6 | 39.00 ± 2 °C | 3.35 ± 0.478 kcal/mol | CCN(C)CC.CS(=O)(=O)O [diethylmethylammonium methanesulfonate] | 
